One may read the IC50 as the concentration that gives 50% inhibition. A higher IC50 goes with lower potency.

The results in this text go back to ChEMBL document CHEMBL4270577, “Synthesis, anticancer activity and molecular modeling studies of 1,2,4-triazole derivatives as EGFR inhibitors” (Eur J Med Chem, 2018).

One assay relates to IGROV-1. Nature of the assay: Growth inhibition of human IGROV1 cells at 10 uM incubated for 48 hrs by sulforhodamine B assay relative to control. Type of assay: functional. As to conditions: IGROV-1, 48 h, read-out: GI.
In another assay the test system is MCF7. Put plainly: Growth inhibition of human MCF7 cells at 10 uM incubated for 48 hrs by sulforhodamine B assay relative to control. As to conditions: MCF7, 48 h, read-out: GI. Type of assay: functional. (In SRB staining, fixed cells bind dye roughly in proportion to their protein.)
A further assay relates to UACC-257. Put plainly: Growth inhibition of human UACC257 cells at 10 uM incubated for 48 hrs by sulforhodamine B assay relative to control. The assay is classed as functional. As to conditions: UACC-257, 48 h, read-out: GI.
For a further assay, the system named is CCRF-CEM. Nature of the assay: Growth inhibition of human CCRF-CEM cells at 10 uM incubated for 48 hrs by sulforhodamine B assay relative to control. The assay is classed as functional. As to conditions: read-out: GI.
The next assay relates to NCI-H23. Put plainly: Growth inhibition of human NCI-H23 cells at 10 uM incubated for 48 hrs by sulforhodamine B assay relative to control. Type of assay: functional. As to conditions: NCI-H23, 48 h, read-out: GI.
A further assay concerns UO-31. Nature of the assay: Growth inhibition of human UO31 cells at 10 uM incubated for 48 hrs by sulforhodamine B assay relative to control. The assay is classed as functional. As to conditions: UO-31, 48 h, read-out: GI.
For the next assay, the system named is NCI-H460. Put plainly: Antiproliferative activity against human H460 cells after 48 hrs by propidium iodide staining-based fluorometric analysis. The assay is classed as functional, cell-based. As to conditions: NCI-H460, 48 h.
Another assay deals with SK-MEL-2. Put plainly: Growth inhibition of human SK-MEL-2 cells at 10 uM incubated for 48 hrs by sulforhodamine B assay relative to control. Type of assay: functional. As to conditions: SK-MEL-2, 48 h, read-out: GI.
The test system of a further assay is RPMI-8226. Nature of the assay: Growth inhibition of human RPMI8226 cells at 10 uM incubated for 48 hrs by sulforhodamine B assay relative to control. The assay is classed as functional. As to conditions: RPMI-8226, 48 h, read-out: GI.
In another assay the test system is NCI-H522. Nature of the assay: Growth inhibition of human NCI-H522 cells at 10 uM incubated for 48 hrs by sulforhodamine B assay relative to control. The assay is classed as functional. As to conditions: NCI-H522, 48 h, read-out: GI.
A further assay concerns NCI-H322M. Put plainly: Growth inhibition of human NCI-H322M cells at 10 uM incubated for 48 hrs by sulforhodamine B assay relative to control. As to conditions: read-out: GI. The assay is classed as functional.
The next assay relates to OVCAR-8. Nature of the assay: Growth inhibition of human OVCAR8 cells at 10 uM incubated for 48 hrs by sulforhodamine B assay relative to control. As to conditions: OVCAR-8, 48 h, read-out: GI. Type of assay: functional.
The next assay has as its system PC-3. Put plainly: Growth inhibition of human PC3 cells at 10 uM incubated for 48 hrs by sulforhodamine B assay relative to control. As to conditions: PC-3, 48 h, read-out: GI. The assay is classed as functional.
The subject of a further assay is SR. Put plainly: Growth inhibition of human SR cells at 10 uM incubated for 48 hrs by sulforhodamine B assay relative to control. As to conditions: read-out: GI. Type of assay: functional.
A further assay concerns MOLT-4. Put plainly: Growth inhibition of human MOLT4 cells at 10 uM incubated for 48 hrs by sulforhodamine B assay relative to control. The assay is classed as functional. As to conditions: MOLT-4, 48 h, read-out: GI.
For the next assay, the system named is HL-60(TB). Put plainly: Growth inhibition of human HL-60(TB) cells at 10 uM incubated for 48 hrs by sulforhodamine B assay relative to control. The assay is classed as functional. As to conditions: HL-60, 48 h, read-out: GI.
The test system of another assay is A549. Put plainly: Growth inhibition of human A549/ATCC cells at 10 uM incubated for 48 hrs by sulforhodamine B assay relative to control. The assay is classed as functional. As to conditions: A549, 48 h, read-out: GI.
The next assay deals with MIA PaCa-2. Nature of the assay: Antiproliferative activity against human MIAPaCa2 cells after 48 hrs by propidium iodide staining-based fluorometric analysis. As to conditions: MIA PaCa-2, 48 h. The assay is classed as functional, cell-based.
The test system of a further assay is SF-268. Put plainly: Growth inhibition of human SF268 cells at 10 uM incubated for 48 hrs by sulforhodamine B assay relative to control. Type of assay: functional. As to conditions: SF-268, 48 h, read-out: GI.
For a further assay, the system named is MDA-MB-231. Nature of the assay: Growth inhibition of human MDA-MB-231/ATCC cells at 10 uM incubated for 48 hrs by sulforhodamine B assay relative to control. As to conditions: MDA-MB-231, 48 h, read-out: GI. The assay is classed as functional.
The test system of assay [1] is HT-29. Nature of the assay: Antiproliferative activity against human HT-29 cells after 48 hrs by propidium iodide staining-based fluorometric analysis. Type of assay: functional, cell-based. As to conditions: HT-29, 48 h.
The next assay concerns HOP-62. Put plainly: Growth inhibition of human HOP62 cells at 10 uM incubated for 48 hrs by sulforhodamine B assay relative to control. The assay is classed as functional. As to conditions: HOP-62, 48 h, read-out: GI.
A further assay relates to PANC-1. Nature of the assay: Antiproliferative activity against human PANC1 cells after 48 hrs by propidium iodide staining-based fluorometric analysis. Type of assay: functional, cell-based. As to conditions: PANC-1, 48 h.
Assay [2] relates to HT-29. Nature of the assay: Growth inhibition of human HT-29 cells at 10 uM incubated for 48 hrs by sulforhodamine B assay relative to control. Type of assay: functional. As to conditions: HT-29, 48 h, read-out: GI.
The next assay deals with Hs-578T. Put plainly: Growth inhibition of human Hs 578T cells at 10 uM incubated for 48 hrs by sulforhodamine B assay relative to control. Type of assay: functional. As to conditions: read-out: GI.
The next assay has as its system NCI-H226. Nature of the assay: Growth inhibition of human NCI-H226 cells at 10 uM incubated for 48 hrs by sulforhodamine B assay relative to control. The assay is classed as functional. As to conditions: NCI-H226, 48 h, read-out: GI.
The test system of the next assay is U-251. Put plainly: Growth inhibition of human U251 cells at 10 uM incubated for 48 hrs by sulforhodamine B assay relative to control. Type of assay: functional. As to conditions: U-251, 48 h, read-out: GI.
A further assay concerns SNB-75. Nature of the assay: Growth inhibition of human SNB75 cells at 10 uM incubated for 48 hrs by sulforhodamine B assay relative to control. Type of assay: functional. As to conditions: SNB-75, 48 h, read-out: GI.
Another assay deals with UACC-62. Put plainly: Growth inhibition of human UACC62 cells at 10 uM incubated for 48 hrs by sulforhodamine B assay relative to control. Type of assay: functional. As to conditions: UACC-62, 48 h, read-out: GI.
The subject of another assay is T47D. Nature of the assay: Growth inhibition of human T47D cells at 10 uM incubated for 48 hrs by sulforhodamine B assay relative to control. The assay is classed as functional. As to conditions: read-out: GI.
A further assay deals with SK-OV-3. Nature of the assay: Growth inhibition of human SKOV3 cells at 10 uM incubated for 48 hrs by sulforhodamine B assay relative to control. As to conditions: SK-OV-3, 48 h, read-out: GI. Type of assay: functional.
In a further assay the test system is SNB-19. Nature of the assay: Growth inhibition of human SNB19 cells at 10 uM incubated for 48 hrs by sulforhodamine B assay relative to control. Type of assay: functional. As to conditions: SNB-19, 48 h, read-out: GI.
The target in a further assay is Tubulin (Homo sapiens) (UniProt P68371+Q9H4B7+P0DPH7+P68366+Q13509+Q71U36+P04350+Q3ZCM7+P07437+P68363+Q9BQE3+Q6PEY2+Q13885+Q9BVA1+Q9BUF5). Put plainly: Inhibition of tubulin (unknown origin) polymerization assessed as polymerized tubulin level at 5 to 25 uM by fluorescence assay. Type of assay: protein-complex assay.

On to `C/C(=N\O)c1ccc(NC(=O)Cn2nc(-c3ccc(Cl)cc3)nc2N)cc1`, for which the inhibition of growth at 10 µM in the assay with IGROV-1 was 10.5%; in the assay on MCF7, 15.9%; in the assay with UACC-257 it was 27.8%; in the assay with CCRF-CEM, 14.7%; in the assay on NCI-H23 it was 7.43%; in the assay on UO-31, 34%. The inhibition of growth at 10 µM worked out at 15.3% in the assay on SK-MEL-2; 6.42% in the assay on RPMI-8226; 31.5% in the assay on NCI-H522; 7.09% in the assay with NCI-H322M; 18% in the assay with OVCAR-8; 28.9% with PC-3. Further, the inhibition of growth at 10 µM with SR came out at 18.3%; with MOLT-4, 33%; in the assay with HL-60(TB) it was 5.94%; in the assay on A549 it was 20.1%; with SF-268 it was 10.5%; with MDA-MB-231, 17.4%. The inhibition of growth at 10 µM with HOP-62 turned out to be 11.7%; in the assay with HT-29 [2] it was 13.3%; in the assay on Hs-578T, 11.2%; in the assay with NCI-H226 it was 17.8%; in the assay with U-251, 9.67%; with SNB-75 it was 12%. Further, the inhibition of growth at 10 µM in the assay on UACC-62 is 8.96%; in the assay with T47D, 13.5%; in the assay with SK-OV-3 it was 27.4%; with SNB-19, 10.7%. Moreover, the IC50 stood at 7.1 µM in the assay on NCI-H460, 8.4 µM in the assay on MIA PaCa-2, 5.8 µM in the assay with HT-29 [1] and 6.6 µM in the assay with PANC-1.

For `CC(=O)O[C@@]12CO[C@@H]1C[C@H](O)[C@@]1(C)C(=O)[C@H](O)C3=C(C)[C@@H](OC(=O)[C@H](O)[C@@H](NC(=O)OC(C)(C)C)c4ccccc4)C[C@@](O)([C@@H](OC(=O)c4ccccc4)[C@H]21)C3(C)C`, at Tubulin (Homo sapiens), the Activity worked out at 4740 a.u.
